In ChEMBL document CHEMBL1221345, “Cytotoxic flavonoids from the leaves of Cryptocarya chinensis” (J Nat Prod, 2010):
*1 amine or outer side, *2 acyl side, *3 side chain or, on linkers, in order; H or OH if unused. Where a SMILES comes first, the peptide text is derived from it. Bridges are numbered along the chain shown (N, C = ends). Roman numbers before positions name the chains, in order. [ ]: non-standard residue; d: D form. Actinocin(1to9) = Cc1c2oc3c(C)ccc(C(=O)[*:2])c3nc-2c(C(=O)[*:1])c(N)c1=O; NMeV = CN[C@H](C(=O)O)C(C)C; Sar = CNCC(=O)O

Assays:
Type in all cases: functional, cell-based
MCF7 = experiment: Cytotoxicity against human MCF7 cells after 72 hrs by MTS reduction assay; settings: MCF7, 72 h
NCI-H460 = experiment: Cytotoxicity against human NCI-H460 cells after 72 hrs by MTS reduction assay; settings: NCI-H460, 72 h
SF-268 = experiment: Cytotoxicity against human SF268 cells after 72 hrs by MTS reduction assay; settings: SF-268, 72 h
KB = experiment: Cytotoxicity against human KB cells

Structure (SMILES)	IC50 (MCF7) [µM]	IC50 (NCI-H460) [µM]	IC50 (SF-268) [µM]	IC50 (KB) [µM]
CO[C@H]1CC2=C(C(=O)C[C@@H](c3ccccc3)O2)[C@@H]2CC(=O)O[C@H]12 [7-O-METHYLCRYPTOCHINONE B]	> 50	> 50	> 50	–
COc1cc(C=O)ccc1O [VANILLIN]	> 50	> 50	> 50	–
CO[C@@H]1CC2=C(C(=O)CC(c3ccccc3)O2)[C@H]2CC(=O)O[C@H]21 (stereo not given in full)	> 50	> 50	> 50	–
CC1=C(C)C(=O)C(CC[C@](C)(O)CCC[C@H](C)CCC[C@H](C)CCCC(C)C)=C(C)C1=O	> 50	37.3	> 50	–
O=C1C[C@H]2C3=C(C[C@H](O)[C@H]2O1)O[C@H](c1ccccc1)CC3=O [CRYPTOCHINONE B]	> 50	> 50	> 50	–
CC(C)=CCC/C(C)=C/CC/C(C)=C/CC/C=C(\C)CC/C=C(\C)CCC=C(C)C	> 50	> 50	> 50	–
O=C1C[C@@H]2C3=C(C=C[C@@H]2O1)O[C@@H](c1ccccc1)CC3=O [CRYPTOCARYANONE A]	5.1	4.3	5	2.5
COc1cc(O)c2c(=O)c(OC)c(-c3ccccc3)oc2c1OC	> 50	> 50	> 50	–
CO[C@H]1CC2=C(C(=O)C[C@@H](c3ccccc3)O2)[C@H]2CC(=O)O[C@@H]12 [7-O-METHYLCRYPTOCHINONE A]	> 50	> 50	> 50	–
COc1cc(O)c2c(=O)c(OC)c(-c3ccccc3)oc2c1	> 50	> 50	> 50	–
COc1c(O)ccc(C(=O)/C=C/c2ccccc2)c1O [LARREIN]	> 50	> 50	> 50	–
O=C1C[C@@H]2C3=C(C[C@H](O)[C@@H]2O1)O[C@H](c1ccccc1)CC3=O [CRYPTOCHINONE A]	> 50	> 50	> 50	–
Cc1c2oc3c(C)ccc(C(=O)N[C@@H]4C(=O)N[C@H](C(C)C)C(=O)N5CCC[C@H]5C(=O)N(C)CC(=O)N(C)[C@@H](C(C)C)C(=O)O[C@@H]4C)c3nc-2c(C(=O)N[C@@H]2C(=O)N[C@H](C(C)C)C(=O)N3CCC[C@H]3C(=O)N(C)CC(=O)N(C)[C@@H](C(C)C)C(=O)O[C@@H]2C)c(N)c1=O [DACTINOMYCIN] (I: T[dV]P[Sar][NMeV] / II: T[dV]P[Sar][NMeV]; ester I:1-I:C, II:1-II:C; linker I:N-II:N via Actinocin(1to9))	0.103	0.008	0.016	–
COc1cc(O)c2c(c1)O[C@H](c1ccccc1)CC2=O [PINOSTROBIN]	> 50	> 50	> 50	–
COC(=O)C[C@H]1CC=CC(=O)/C1=C(O)/C=C/c1ccccc1 [INFECTOCARYONE]	24.3	11	3.7	1.7
COc1cc2oc(-c3ccccc3)cc(=O)c2c(O)c1OC [MOSLOFLAVONE]	> 50	> 50	> 50	–
